One experiment has as its system ALOMY. The experiment is described as follows: Herbicidal post-emergence action 1a (greenhouse pots, visual rating). In kind it is in vivo, Alopecurus myosuroides. Conditions: rated visually about 3 weeks after treatment, 100% = plants have died, 0% = like control plants. In short, it runs like this:
(§1)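 Weeds and crops sown in sandy loam in greenhouse pots were sprayed post-emergence at the one-leaf stage (2–3 weeks after sowing) with WP or EC formulations plus 0.5% additive at 600 l/ha water, 320 and/or 80 g/ha. About 3 weeks later damage was rated visually against untreated controls (0% = no effect, 100% = dead).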

The subject of experiment [1] is ECHCG. Described as above. The experiment is classed as in vivo, Echinochloa crus-galli. As to conditions: rated visually about 3 weeks after treatment, 100% = plants have died, 0% = like control plants. In short, it runs like this:
as §1

The test system of a further experiment is harmful plants. The experiment is described as follows: Herbicidal post-emergence action 1a, summary across species. The experiment is classed as in vivo. As to conditions: Tables A1 to A15 (320 g/ha and/or 80 g/ha).
Experiment [2] relates to ECHCG. The experiment in a line: Herbicidal pre-emergence action 2a (greenhouse pots, visual scoring). The experiment is classed as in vivo, Echinochloa crus-galli. As to conditions: dosage 320 g/ha, visual scoring after about 3 weeks. In short, it runs like this:
(§2)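 Seeds were sown in pots, covered with soil, and the compound (WP or EC formulation) was sprayed onto the soil surface as an aqueous suspension or emulsion with 0.5% additive at 600 l/ha water, at 320 g/ha and/or 80 g/ha. Greenhouse growth followed for about 3 weeks, then visual scoring against untreated controls.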

In experiment [3] the test system is AMARE. The experiment is described as above. In kind it is in vivo, Amaranthus retroflexus. As to conditions: dosage 320 g/ha, visual scoring after about 3 weeks vs untreated controls. In short, it runs like this:
as §2

In experiment [4] the test system is AMARE. The experiment is described as follows: Herbicidal pre-emergence action 2b (doubly sown, 1280 g/ha). The experiment is classed as in vivo, Amaranthus retroflexus. As to conditions: doubly sown pots, dosage 1280 g/ha, visual scoring after about 3 weeks. The method in brief:
(§3)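 Seeds are placed in sandy loam and covered, then the formulated compound is applied to the covering soil in water equivalent to 600 litres per hectare with 0.5% additive. Pots stay in the greenhouse under good growth conditions. Activity is rated visually as a percentage of untreated controls after about three weeks.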

Experiment [5] relates to VERPE. The experiment in a line: Herbicidal pre-emergence action 2a (greenhouse pots, visual scoring). The experiment is classed as in vivo, Veronica persica. Conditions: dosage 320 g/ha, visual scoring after about 3 weeks vs untreated controls. In short, it runs like this: as §2
In the next experiment the test system is MATIN. The experiment is described as follows: Herbicidal pre-emergence action 2b (doubly sown, 1280 g/ha). In kind it is in vivo, Matricaria inodora. Conditions: doubly sown pots, dosage 1280 g/ha, visual scoring after about 3 weeks. In short, it runs like this: as §3
Experiment [6] deals with AMARE. The experiment is described as follows: Herbicidal post-emergence action 1a (greenhouse pots, visual rating). The experiment is classed as in vivo, Amaranthus retroflexus. As to conditions: visual rating about 3 weeks after treatment. In short, it runs like this:
as §1

A further experiment deals with POAAN. The experiment is described as follows: Herbicidal pre-emergence action 2b (doubly sown, 1280 g/ha). The experiment is classed as in vivo, Poa annua. Conditions: doubly sown pots, dosage 1280 g/ha, visual scoring after about 3 weeks. The method in brief:
as §3

Experiment [7] concerns DIGSA. The experiment in a line: Herbicidal pre-emergence action 2a (greenhouse pots, visual scoring). The experiment is classed as in vivo, Digitaria sanguinalis. Conditions: dosage 320 g/ha, visual scoring after about 3 weeks. The method in brief: as §2
For the next experiment, the system named is POLCO. Described as above. The experiment is classed as in vivo, Polygonum convolvulus. Conditions: dosage 320 g/ha, visual scoring after about 3 weeks vs untreated controls. The method in brief:
as §2

The test system of experiment [8] is VERPE. The experiment is described as follows: Herbicidal post-emergence action 1a (greenhouse pots, visual rating). The experiment is classed as in vivo, Veronica persica. As to conditions: visual rating about 3 weeks after treatment. The method in brief:
as §1

The next experiment concerns SETVI. Described as above. In kind it is in vivo, Setaria viridis. Conditions: rated visually about 3 weeks after treatment, 100% = plants have died, 0% = like control plants. The method in brief: as §1
In experiment [9] the test system is DIGSA. The experiment is described as above. The experiment is classed as in vivo, Digitaria sanguinalis. Conditions: rated visually about 3 weeks after treatment, 100% = plants have died, 0% = like control plants. In short, it runs like this:
as §1

For another experiment, the system named is STEME. The experiment is described as follows: Herbicidal pre-emergence action 2b (doubly sown, 1280 g/ha). The experiment is classed as in vivo, Stellaria media. As to conditions: doubly sown pots, dosage 1280 g/ha, visual scoring after about 3 weeks. In short, it runs like this: as §3
In another experiment the test system is LOLRI. The experiment is described as follows: Herbicidal pre-emergence action 2a (greenhouse pots, visual scoring). The experiment is classed as in vivo, Lolium rigidum. As to conditions: dosage 320 g/ha, visual scoring after about 3 weeks vs untreated controls. In short, it runs like this: as §2

Structures are written as SMILES.

For the compound `COC(=O)[C@@H](C)Oc1nn(-c2cnccn2)c(-c2cccc(F)c2)c1Br` [Example I-20], the “Post-emergence action against ALOMY in %” value in the experiment with ALOMY (Dosage 80 g/ha) is on record as 80%; in the experiment with ALOMY (Dosage 320 g/ha), 90%. In addition, the “Post-emergence action against ECHCG in %” value in the experiment with ECHCG [1] (Dosage 320 g/ha) was determined as 80%. Moreover, the “herbicidal efficacy against harmful plants in the case of post-emergence treatment (in words)” value (“herbicidal efficacy” for short) with harmful plants is given as “good herbicidal efficacy”. The “Pre-emergence action against ECHCG in %” value in the experiment with ECHCG [2] was 90%. In addition, the “Pre-emergence action against AMARE in %” value with AMARE [3] amounted to 100%. In addition, the “Pre-emergence action at 1280 g/ha against AMARE in %” value with AMARE [4] was determined as 100%. Further, the “Pre-emergence action against VERPE in %” value in the experiment on VERPE [5] amounted to 100%. In the experiment with MATIN, the “Pre-emergence action at 1280 g/ha against MATIN in %” value was determined as 100%. Besides, the “Post-emergence action against AMARE in %” value came to 90% in the experiment on AMARE [6] (dosage 80 g/ha) and 100% in the experiment on AMARE [6] (dosage 320 g/ha). The “Pre-emergence action at 1280 g/ha against POAAN in %” value in the experiment on POAAN amounted to 100%. Besides, in the experiment with DIGSA [7], the “Pre-emergence action against DIGSA in %” value is 100%. Also, the “Pre-emergence action against POLCO in %” value with POLCO turned out to be 80%. The “Post-emergence action against VERPE in %” value in the experiment on VERPE [8] (dosage 80 g/ha) came out at 80%; in the experiment on VERPE [8] (dosage 320 g/ha) it was 90%. The results for the “Post-emergence action against SETVI in %” value in the experiment on SETVI (Dosage 80 g/ha) and with SETVI (Dosage 320 g/ha) were 80% and 90%, respectively. The “Post-emergence action against DIGSA in %” value in the experiment with DIGSA [9] (Dosage 80 g/ha) was determined as 80%; in the experiment with DIGSA [9] (Dosage 320 g/ha), 90%. Also, the “Pre-emergence action at 1280 g/ha against STEME in %” value with STEME is recorded as 100%.

Take `COC(=O)[C@@H](C)Oc1nn(-c2cnccn2)c(-c2ccnc(F)c2)c1Br` [Example I-34]: the “Post-emergence action against ALOMY in %” value with ALOMY (Dosage 80 g/ha) is given as 80%; with ALOMY (Dosage 320 g/ha) it was 100%. Also, the “herbicidal efficacy” value in the experiment on harmful plants is “good herbicidal efficacy”. Moreover, the “Pre-emergence action against ECHCG in %” value in the experiment on ECHCG [2] worked out at 80%. The “Pre-emergence action against AMARE in %” value in the experiment on AMARE [3] was 90%. The “Pre-emergence action at 1280 g/ha against AMARE in %” value in the experiment with AMARE [4] was 100%. In addition, the “Pre-emergence action at 1280 g/ha against MATIN in %” value with MATIN is reported as 100%. Further, the “Post-emergence action against AMARE in %” value with AMARE [6] (dosage 320 g/ha) is recorded as 80%. The “Pre-emergence action at 1280 g/ha against POAAN in %” value in the experiment on POAAN stood at 100%. Further, the “Pre-emergence action against DIGSA in %” value in the experiment with DIGSA [7] is 100%. In addition, the “Pre-emergence action against LOLRI in %” value with LOLRI amounted to 100%. For the same compound, the “Pre-emergence action against POLCO in %” value in the experiment with POLCO came out at 100%. Also, the “Post-emergence action against VERPE in %” value in the experiment on VERPE [8] (dosage 320 g/ha) stood at 80%. Also, the entries for the “Post-emergence action against SETVI in %” value in the experiment with SETVI (Dosage 80 g/ha) and in the experiment with SETVI (Dosage 320 g/ha) were 80% and 90%, respectively. Further, the “Post-emergence action against DIGSA in %” value with DIGSA [9] (Dosage 320 g/ha) turned out to be 80%. Besides, the “Pre-emergence action at 1280 g/ha against STEME in %” value in the experiment on STEME is listed as 100%.

With `COC(=O)C(C)Oc1nn(-c2cnccn2)c(-c2cncc(F)c2)c1Br` (racemic) [Example I-08], the “Post-emergence action against ALOMY in %” value in the experiment on ALOMY (Dosage 80 g/ha) and in the experiment with ALOMY (Dosage 320 g/ha) was 100% in each case. Besides, the results for the “Post-emergence action against ECHCG in %” value with ECHCG [1] (Dosage 80 g/ha) and in the experiment on ECHCG [1] (Dosage 320 g/ha) were 80% and 90%, respectively. Further, in the experiment with harmful plants, the “herbicidal efficacy” value was “good herbicidal efficacy”. The “Pre-emergence action against ECHCG in %” value in the experiment on ECHCG [2] is reported as 100%. Further, the “Pre-emergence action against AMARE in %” value in the experiment on AMARE [3] is 100%. In addition, the “Pre-emergence action against VERPE in %” value in the experiment on VERPE [5] stood at 100%. Also, in the experiment on AMARE [6] (dosage 320 g/ha), the “Post-emergence action against AMARE in %” value was found to be 80%. Also, the “Pre-emergence action against DIGSA in %” value with DIGSA [7] came to 100%. Also, the “Pre-emergence action against LOLRI in %” value in the experiment with LOLRI came to 100%. In the experiment on POLCO, the “Pre-emergence action against POLCO in %” value turned out to be 100%. The “Post-emergence action against VERPE in %” value in the experiment with VERPE [8] (dosage 80 g/ha) and in the experiment with VERPE [8] (dosage 320 g/ha) was 90% in each case. The “Post-emergence action against SETVI in %” value in the experiment on SETVI (Dosage 80 g/ha) and in the experiment on SETVI (Dosage 320 g/ha) was 80% each time. For the same compound, the “Post-emergence action against DIGSA in %” value in the experiment on DIGSA [9] (Dosage 320 g/ha) was 80%.

As for `CCOC(=O)COc1nn(-c2cnccn2)c(-c2ccccc2)c1Br` [Example I-01], the “Post-emergence action against ALOMY in %” value with ALOMY (Dosage 320 g/ha) amounted to 90%. The “Post-emergence action against ECHCG in %” value in the experiment with ECHCG [1] (Dosage 320 g/ha) is recorded as 90%. Moreover, the “herbicidal efficacy” value with harmful plants is reported as “good herbicidal efficacy”. The “Pre-emergence action against ECHCG in %” value with ECHCG [2] came out at 80%. For the same compound, in the experiment on AMARE [3], the “Pre-emergence action against AMARE in %” value amounted to 100%. In the experiment with AMARE [4], the “Pre-emergence action at 1280 g/ha against AMARE in %” value is 100%. Besides, the “Pre-emergence action against VERPE in %” value in the experiment on VERPE [5] was found to be 90%. Further, the “Pre-emergence action at 1280 g/ha against MATIN in %” value with MATIN came to 100%. The “Post-emergence action against AMARE in %” value in the experiment on AMARE [6] (dosage 80 g/ha) was 80%; in the experiment with AMARE [6] (dosage 320 g/ha), 90%. The “Pre-emergence action at 1280 g/ha against POAAN in %” value with POAAN came to 100%. Besides, in the experiment with DIGSA [7], the “Pre-emergence action against DIGSA in %” value was 90%. Moreover, the “Pre-emergence action against LOLRI in %” value with LOLRI was determined as 80%. Moreover, the “Pre-emergence action against POLCO in %” value in the experiment with POLCO is 80%. The “Post-emergence action against VERPE in %” value is 80% with VERPE [8] (dosage 80 g/ha) and 90% with VERPE [8] (dosage 320 g/ha). In the experiment on DIGSA [9] (Dosage 320 g/ha), the “Post-emergence action against DIGSA in %” value is reported as 80%. For the same compound, the “Pre-emergence action at 1280 g/ha against STEME in %” value with STEME is reported as 100%.

The values are drawn from patent publication US20230167088A1, “1-PYRAZINYLPYRAZOLYL-3-OXYALKYL ACIDS AND THEIR DERIVATIVES, AND THEIR USE FOR CONTROL OF UNDESIRED PLANT GROWTH” (BAYER AKTIENGESELLSCHAFT, priority 2020, published 2023).
